Where a name gives a salt, the structure may show the parent alone.
Assays:
[1] = system: reserpine-induced hypothermia; experiment: Antagonism of the reserpine-induced hypothermia; format: in vivo, mice; settings: given 4 hours after reserpine 2.5 mg/kg i.p.; rectal temperature 90 min after compound
Procedure: Antagonism of the Reserpine-Induced Hypothermia
The compounds of a general formula (I) as well as the reference compounds are administered 4 hours after reserpine (2.5 mg/kg i.p.). Rectal temperature is measured 90 minutes after the administration of the compounds to be tested.

[2] = system: apomorphine-induced hypothermia; experiment: Antagonism of apomorphine-induced hypothermia; format: in vivo; settings: male CD1 mice; i.p.; apomorphine 16 mg/kg s.c.; rectal temperature 30 min after apomorphine
Procedure: Antagonism of Apomorphine-Induced Hypothermia (A. J. Puech et al., Psychopharmacology (1981) 75(1):84-91)
Male CD1 mice (Charles River) weighing 22-25 g are used in the test. The mice are housed individually in transparent plastic cages. The compounds of a general formula (I) as well as the reference compounds are suspended in 1% aqueous carboxymethylcellulose and administered intraperitoneally (10 ml/kg; 6 mice per dose). Control animals received the vehicle only.
Rectal temperature is measured using a probe carrying a thermoelectric couple (connected to a galvanometer) inserted to a constant depth.
The compounds to be tested as well as the vehicle are administered 30 minutes after basal rectal temperature is measured, and 30 minutes later apomorphine (16 mg/kg) is administered subcutaneously. Rectal temperature is measured again 30 minutes after the administration of apomorphine.
The results are expressed as average rectal temperature of each group, by evaluating the significant differences in temperature between treated and control mice by Student's t test, and are used for calculating the M.A.D., i.e., the minimal active dose.

immobility of mice = experiment: Tail suspension; format: in vivo; settings: 30 mg/kg PO, reference
Procedure: Compounds of a general formula (I) (starting at an initial dose of 30 mg/kg PO, 1 hr pretreatment) were administered to mice (n=5). A reduction of immobility by 50% or more relative to a vehicle-treated control group indicates possible antidepressant activity. Fluoxetine hydrochloride served as a standard reference compound. […] There was a 35% mobility reduction at 100 mg/kg PO, 54% mobility reduction at 10 mg/kg PO and 46% mobility reduction at 1 mg/kg PO.

SMILES | M.A.D. (minimal active dose), antagonism of reserpine-induced hypothermia [1] | M.A.D. (minimal active dose), antagonism of apomorphine-induced hypothermia [2] [mg/kg i.p.] | reduction of immobility (immobility of mice) [%]
CCOC(=O)COc1cccc([C@@H]2CCC[C@@H](NC[C@H](O)c3cccc(Cl)c3)C2)c1 [Compound A, 3-[(1R,3R)-3-[(2R)-2-(3-chlorophenyl)-2-hydroxyethylamino]cyclohexyl]-phenoxy acetic acid ethyl ester, maleate salt] | closer to clenbuterol (0.03 mg/kg i.p.) than salbutamol (3.0 mg/kg i.p.) |  | 
CC(C)(C)NCC(O)c1cc(Cl)c(N)c(Cl)c1 (stereo not drawn) [clenbuterol] | 0.03 mg/kg i.p. | 0.03 | 
CNCCC(Oc1ccc(C(F)(F)F)cc1)c1ccccc1 (stereo not drawn) [fluoxetine, Fluoxetine hydrochloride] |  |  | 87
CC(C)(C)NCC(O)c1ccc(O)c(CO)c1 (stereo not drawn) [salbutamol] | 3.0 mg/kg i.p. | 1.0 | 
